Measurements as given in article PMC7812606 (ACS Medicinal Chemistry Letters, 2020).
“Also recorded” adds a separate entry of the source. Each block holds one compound with its values, some of them ahead of it.

Columns and labels:
[1] = tested on: APP^T668 phosphorylation in primary neurons; experiment: Cell-based inhibition of APP T668 phosphorylation; settings: concentration as low as 10 nM
[2] = molecular target: panel of ∼374 wild-type kinases; experiment: Kinase panel profiling, overall; type: biochemical; settings: 17 and 25 at 5 μM, 27 at 10 μM
JNK3 = JNK3 (Homo sapiens, UniProt P53779); type: biochemical; settings: JNK3 or JNK1
Sequence of JNK3 (P53779 whole entry): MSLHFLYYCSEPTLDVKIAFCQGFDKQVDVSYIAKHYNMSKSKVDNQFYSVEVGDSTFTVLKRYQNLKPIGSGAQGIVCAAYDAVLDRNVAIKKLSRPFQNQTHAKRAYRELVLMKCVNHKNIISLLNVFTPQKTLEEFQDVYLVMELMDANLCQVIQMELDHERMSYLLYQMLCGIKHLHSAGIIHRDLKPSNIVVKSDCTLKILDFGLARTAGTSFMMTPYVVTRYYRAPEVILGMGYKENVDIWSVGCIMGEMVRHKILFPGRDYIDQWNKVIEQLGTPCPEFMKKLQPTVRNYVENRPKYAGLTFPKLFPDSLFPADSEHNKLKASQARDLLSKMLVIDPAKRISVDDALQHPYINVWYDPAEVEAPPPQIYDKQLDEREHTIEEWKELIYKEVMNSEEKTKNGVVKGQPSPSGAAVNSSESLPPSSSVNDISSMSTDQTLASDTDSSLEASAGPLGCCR

In vivo brain exposure = settings: mice
JNK2 = JNK2 (Homo sapiens, UniProt P45984); type: biochemical; settings: isoform selectivity, fold
Sequence of JNK2 (P45984 whole entry, canonical isoform): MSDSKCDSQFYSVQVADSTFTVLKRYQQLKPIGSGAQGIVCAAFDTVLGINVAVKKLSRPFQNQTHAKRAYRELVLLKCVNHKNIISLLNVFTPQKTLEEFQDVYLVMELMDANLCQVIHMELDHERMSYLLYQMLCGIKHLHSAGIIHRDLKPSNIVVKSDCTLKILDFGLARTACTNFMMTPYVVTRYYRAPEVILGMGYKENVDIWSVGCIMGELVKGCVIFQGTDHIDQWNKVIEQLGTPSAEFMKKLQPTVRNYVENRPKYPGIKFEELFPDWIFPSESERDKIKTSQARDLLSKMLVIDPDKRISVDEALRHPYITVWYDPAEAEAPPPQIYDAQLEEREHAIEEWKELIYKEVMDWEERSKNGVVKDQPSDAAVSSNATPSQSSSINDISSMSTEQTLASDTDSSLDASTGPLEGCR

kinases with significant inhibition (>80% inhibition) in panel [2]: against only JNK3
Compound: O=C(Nc1cnn(-c2csc(C(=O)NC3COC3)c2)c1)Nc1c(F)cccc1Cl [Compound 25]

brain penetration (In vivo brain exposure; po dosing): brain penetrant
oral bioavailability (In vivo brain exposure; po dosing): has oral bioavailability
brain concentration (In vivo brain exposure; po, 10 mg/kg, 1 h after dosing): 1080 nM
plasma concentration (In vivo brain exposure; po, 10 mg/kg, 1 h after dosing): 960 nM
Compound: O=C(Nc1cnn(-c2csc(C(=O)NC3COC3)c2)c1)Nc1ccccc1Cl [Compound 17]
kinases with significant inhibition (>80% inhibition) in panel [2]: significant inhibition to only JNK3; also recorded: against only JNK3
inhibition of phosphorylation of residue T668 of APP [1]: significantly inhibited

R: ratio of IC50 values for JNK2 over JNK3 (JNK2): > 250
Compound: O=C(Nc1cnn(-c2csc(C(=O)N[C@@H]3CCOC3)c2)c1)Nc1ccccc1Cl [Compound 16]

The next lines start with the compound.

Compound: O=C(Nc1cnn(-c2csc(C(=O)NC3COC3)c2)c1)Nc1ccc(F)cc1Cl [Compound 26]
inhibition of phosphorylation of residue T668 of APP [1]: significantly inhibited

Compound: Cc1sc(C(=O)N[C@@H]2CCOC2)cc1-n1cc(NC(=O)Nc2c(F)cccc2Cl)cn1 [Compound 28]
inhibition of phosphorylation of residue T668 of APP [1]: significantly inhibited

Compound: Cc1sc(C(=O)NC2COC2)cc1-n1cc(NC(=O)Nc2c(F)cccc2Cl)cn1 [Compound 27]
kinases with significant inhibition (>80% inhibition) in panel [2]: against only JNK3

Compound: O=C(Nc1cnn(-c2nc(C(=O)NC3CNC3)cs2)c1)Nc1ccccc1Cl [Compound 3]
inhibition of JNK3 and JNK1 in words (JNK3): no inhibitions
